# Test results published in the supplement of paper PMC8671470.
# ± gives the standard deviation of the averaged measurements.
# Tests used:
# Settings in all cases: 72 h
# [1] = test system: myeloid leukemia patient primary cells Pat.10; test: cell viability (% survival relative to DMSO control); higher = less cytotoxic
# Outline: (§1)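 Where an area under the curve appears, it was computed with the drc and PharmacoGx R packages from log-logistic fits. Those fits used four parameters. The underlying viability data came from CellTiter-Glo after 72 h, normalised to DMSO and 10 μM proteasome-inhibitor wells, with thawed, Ficoll-purified AML or CML patient mononuclear cells at 10,000 cells/well in RPMI 1640 with 10% FBS on 384-well plates pre-printed with 70 compounds at five tenfold concentrations (1–10,000 nM) in duplicate.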
# [2] = test system: myeloid leukemia patient primary cells Pat.11; test: as above
# Outline: as §1
# [3] = test system: myeloid leukemia patient primary cells Pat.15; test: as above
# Outline: as §1
# [4] = test system: myeloid leukemia patient primary cells Pat.4; test: as above
# Outline: as §1
# [5] = test system: myeloid leukemia patient primary cells Pat.14; test: as above
# Outline: as §1
# [6] = test system: myeloid leukemia patient primary cells Pat.5; test: as above
# Outline: as §1
# [7] = test system: myeloid leukemia patient primary cells Pat.13; test: as above
# Outline: as §1
# [8] = test system: myeloid leukemia patient primary cells Pat.12; test: as above
# Outline: as §1
# [9] = test system: myeloid leukemia patient primary cells Pat.2; test: as above
# Outline: as §1
# [10] = test system: myeloid leukemia patient primary cells Pat.8; test: as above
# Outline: as §1
# [11] = test system: myeloid leukemia patient primary cells Pat.9; test: as above
# Outline: as §1
# [12] = test system: myeloid leukemia patient primary cells Pat.3; test: as above
# Outline: as §1
# [13] = test system: myeloid leukemia patient primary cells Pat.7; test: as above
# Outline: as §1
# [14] = test system: myeloid leukemia patient primary cells Pat.1; test: as above
# Outline: as §1
# [15] = test system: HL-60; test: cell viability (% survival relative to DMSO control); higher = less cytotoxic
# Outline: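 Four-parameter log-logistic fits in drc and PharmacoGx supplied area under the curve where it is given. Underlying viability came from CellTiter-Glo, normalised to DMSO and proteasome-inhibitor wells, with the proteasome inhibitor at 10 μM. HL-60 cells in RPMI 1640 plus 10% FBS had been rescreened against the full library at five tenfold concentrations of 1–10,000 nM, in duplicate on 384-well plates, with DMSO or 100 nM of one of three metabolic inhibitors, for 72 h at 37 °C, 5% CO2.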
# [16] = test system: K-562; test: cell viability (% survival relative to DMSO control, bortezomib = 0%); higher = less cytotoxic
# Outline: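 Reported values are percent survival from duplicate wells, averaged. Fifteen myeloid leukaemia cell lines were treated in 384-well plates with compounds at 1, 10, 100, 1000 or 10000 nM for 72 h at 37 °C in 5% CO2. Signals from CellTiter-Glo luminescence were scaled with vehicle as 100% and a 10 µM positive control as 0%.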
compound,measurement,setting,value
C=C(C=NNC(=N)N)NNC(=N)N [Mitoguazone],cell viability,[1]; 1 nM,78.7%
same,cell viability,[1]; 10 nM,59.4%
same,cell viability,[1]; 100 nM,13.6%
same,cell viability,[1]; 1000 nM,28.1%
same,cell viability,[1]; 10000 nM,89.2%
same,cell viability,[2]; 1 nM,98.8%
same,cell viability,[2]; 10 nM,92.1%
same,cell viability,[2]; 100 nM,> 100%
same,cell viability,[2]; 1000 nM,98.6%
same,cell viability,[2]; 10000 nM,84.1%
same,cell viability,[3]; 1 nM,89.7%
same,cell viability,[3]; 10 nM,82.8%
same,cell viability,[3]; 100 nM,91.4%
same,cell viability,[3]; 1000 nM,69.4%
same,cell viability,[3]; 10000 nM,19.6%
same,cell viability,[4]; 1 nM,92.5%
same,cell viability,[4]; 10 nM,82.3%
same,cell viability,[4]; 100 nM,48.1%
same,cell viability,[4]; 1000 nM,92.3%
same,cell viability,[4]; 10000 nM,44.2%
same,cell viability,[5]; 1 nM,91.4%
same,cell viability,[5]; 10 nM,54.7%
same,cell viability,[5]; 100 nM,4.62%
same,cell viability,[5]; 1000 nM,2.41%
same,cell viability,[5]; 10000 nM,80.8%
same,cell viability,[6]; 1 nM,> 100%
same,cell viability,[6]; 10 nM,0.912%
same,cell viability,[6]; 100 nM,0.265%
same,cell viability,[6]; 1000 nM,1.33%
same,cell viability,[6]; 10000 nM,78.9%
same,cell viability,[7]; 1 nM,88.3%
same,cell viability,[7]; 10 nM,78.5%
same,cell viability,[7]; 100 nM,91.2%
same,cell viability,[7]; 1000 nM,50.8%
same,cell viability,[7]; 10000 nM,> 100%
same,cell viability,[8]; 1 nM,> 100%
same,cell viability,[8]; 10 nM,90%
same,cell viability,[8]; 100 nM,99.3%
same,cell viability,[8]; 1000 nM,96.9%
same,cell viability,[8]; 10000 nM,99.4%
same,cell viability,[9]; 1 nM,96.2%
same,cell viability,[9]; 10 nM,79.2%
same,cell viability,[9]; 100 nM,49.2%
same,cell viability,[9]; 1000 nM,50%
same,cell viability,[9]; 10000 nM,67.7%
same,cell viability,[10]; 1 nM,94.1%
same,cell viability,[10]; 10 nM,69%
same,cell viability,[10]; 100 nM,50%
same,cell viability,[10]; 1000 nM,99.8%
same,cell viability,[10]; 10000 nM,94.2%
same,cell viability,[11]; 1 nM,75.2%
same,cell viability,[11]; 10 nM,50.8%
same,cell viability,[11]; 100 nM,1.24%
same,cell viability,[11]; 1000 nM,1.6%
same,cell viability,[11]; 10000 nM,57.2%
same,cell viability,[12]; 1 nM,97.3%
same,cell viability,[12]; 10 nM,82.2%
same,cell viability,[12]; 100 nM,51.4%
same,cell viability,[12]; 1000 nM,4.18%
same,cell viability,[12]; 10000 nM,53%
same,cell viability,[13]; 1 nM,65.3%
same,cell viability,[13]; 10 nM,85.7%
same,cell viability,[13]; 100 nM,< 0%
same,cell viability,[13]; 1000 nM,< 0%
same,cell viability,[13]; 10000 nM,54.5%
same,cell viability,[14]; 1 nM,86.1%
same,cell viability,[14]; 10 nM,72.5%
same,cell viability,[14]; 100 nM,93.5%
same,cell viability,[14]; 1000 nM,94.2%
same,cell viability,[14]; 10000 nM,69%
same,cell viability,"[15]; 0.001 µM, co-treatment: AZD3965 100 nM",98 ± 2.1%
same,cell viability,"[15]; 0.001 µM, co-treatment: DMSO vehicle",99.2 ± 4.5%
same,cell viability,"[15]; 0.001 µM, co-treatment: GSK2194069 100 nM",101 ± 3.5%
same,cell viability,"[15]; 0.001 µM, co-treatment: pictilisib 100 nM",108 ± 1.3%
same,cell viability,"[15]; 0.01 µM, co-treatment: AZD3965 100 nM",102 ± 2.5%
same,cell viability,"[15]; 0.01 µM, co-treatment: DMSO vehicle",100.1 ± 0.87%
same,cell viability,"[15]; 0.01 µM, co-treatment: GSK2194069 100 nM",112 ± 10%
same,cell viability,"[15]; 0.01 µM, co-treatment: pictilisib 100 nM",120 ± 2.9%
same,cell viability,"[15]; 0.1 µM, co-treatment: AZD3965 100 nM",102 ± 1.6%
same,cell viability,"[15]; 0.1 µM, co-treatment: DMSO vehicle",97.8 ± 2.5%
same,cell viability,"[15]; 0.1 µM, co-treatment: GSK2194069 100 nM",102.2 ± 0.58%
same,cell viability,"[15]; 0.1 µM, co-treatment: pictilisib 100 nM",104 ± 6.1%
same,cell viability,"[15]; 1 µM, co-treatment: AZD3965 100 nM",93.1 ± 4.7%
same,cell viability,"[15]; 1 µM, co-treatment: DMSO vehicle",101 ± 2.3%
same,cell viability,"[15]; 1 µM, co-treatment: GSK2194069 100 nM",98.3 ± 1%
same,cell viability,"[15]; 1 µM, co-treatment: pictilisib 100 nM",112 ± 4.9%
same,cell viability,"[15]; 10 µM, co-treatment: AZD3965 100 nM",48.6 ± 1.8%
same,cell viability,"[15]; 10 µM, co-treatment: DMSO vehicle",69.6 ± 3%
same,cell viability,"[15]; 10 µM, co-treatment: GSK2194069 100 nM",76.9 ± 2.1%
same,cell viability,"[15]; 10 µM, co-treatment: pictilisib 100 nM",56.7 ± 3.5%
same,cell viability,[16]; 1 nM,96.1%
same,cell viability,[16]; 10 nM,105%
same,cell viability,[16]; 100 nM,114%
same,cell viability,[16]; 1000 nM,67%
same,cell viability,[16]; 10000 nM,29.3%
